Key:
TmGH1 [1] = biological target: T1, TmGH1 (Thermotoga maritima, UniProt Q08638); conditions: cited from earlier work
T1 sequence (Q08638 1-446): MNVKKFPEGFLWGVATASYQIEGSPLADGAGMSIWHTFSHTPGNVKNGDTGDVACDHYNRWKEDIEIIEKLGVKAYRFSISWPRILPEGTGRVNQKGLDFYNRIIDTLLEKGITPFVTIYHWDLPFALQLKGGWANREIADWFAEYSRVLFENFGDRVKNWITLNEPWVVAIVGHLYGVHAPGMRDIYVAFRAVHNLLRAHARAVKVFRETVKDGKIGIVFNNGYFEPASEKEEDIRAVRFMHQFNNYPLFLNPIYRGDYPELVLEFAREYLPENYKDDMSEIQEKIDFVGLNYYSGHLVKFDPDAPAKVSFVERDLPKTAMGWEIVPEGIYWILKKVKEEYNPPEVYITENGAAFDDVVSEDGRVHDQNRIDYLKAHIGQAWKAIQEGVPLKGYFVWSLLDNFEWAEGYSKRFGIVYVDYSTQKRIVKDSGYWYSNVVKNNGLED

TmGH1 [2] = biological target: T1, TmGH1; test: TmGH1 inhibition; assay type: biochemical
SsGH1 = biological target: T2, SsGH1 (Saccharolobus solfataricus, UniProt P22498); test: SsGH1 inhibition; assay type: biochemical, Sulfolobus solfataricus
T2 sequence (P22498 1-489): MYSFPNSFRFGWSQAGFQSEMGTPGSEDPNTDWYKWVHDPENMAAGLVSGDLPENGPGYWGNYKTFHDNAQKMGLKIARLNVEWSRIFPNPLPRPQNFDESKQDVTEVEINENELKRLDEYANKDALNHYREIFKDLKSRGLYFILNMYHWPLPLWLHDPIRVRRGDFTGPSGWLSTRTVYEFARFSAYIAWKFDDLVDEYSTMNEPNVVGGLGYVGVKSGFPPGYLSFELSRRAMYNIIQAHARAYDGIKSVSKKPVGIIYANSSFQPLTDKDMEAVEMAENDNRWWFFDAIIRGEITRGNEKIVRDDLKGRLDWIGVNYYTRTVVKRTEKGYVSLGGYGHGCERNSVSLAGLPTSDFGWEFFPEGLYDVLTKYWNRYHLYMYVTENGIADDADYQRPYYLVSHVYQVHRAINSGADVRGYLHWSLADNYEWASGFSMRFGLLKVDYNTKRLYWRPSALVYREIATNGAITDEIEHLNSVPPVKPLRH

TmGH1, SsGH1 and BtMan2A = assay type: biochemical; conditions: 3 vs 4 (TmGH1, SsGH1), 7 vs 8 (BtMan2A)
BtMan2A = biological target: T3, BtMan2A (Bacteroides thetaiotaomicron, UniProt Q8AAK6); test: BtMan2A inhibition; assay type: biochemical; conditions: ratio of Ki for BtMan2A
T3 sequence (Q8AAK6 26-864): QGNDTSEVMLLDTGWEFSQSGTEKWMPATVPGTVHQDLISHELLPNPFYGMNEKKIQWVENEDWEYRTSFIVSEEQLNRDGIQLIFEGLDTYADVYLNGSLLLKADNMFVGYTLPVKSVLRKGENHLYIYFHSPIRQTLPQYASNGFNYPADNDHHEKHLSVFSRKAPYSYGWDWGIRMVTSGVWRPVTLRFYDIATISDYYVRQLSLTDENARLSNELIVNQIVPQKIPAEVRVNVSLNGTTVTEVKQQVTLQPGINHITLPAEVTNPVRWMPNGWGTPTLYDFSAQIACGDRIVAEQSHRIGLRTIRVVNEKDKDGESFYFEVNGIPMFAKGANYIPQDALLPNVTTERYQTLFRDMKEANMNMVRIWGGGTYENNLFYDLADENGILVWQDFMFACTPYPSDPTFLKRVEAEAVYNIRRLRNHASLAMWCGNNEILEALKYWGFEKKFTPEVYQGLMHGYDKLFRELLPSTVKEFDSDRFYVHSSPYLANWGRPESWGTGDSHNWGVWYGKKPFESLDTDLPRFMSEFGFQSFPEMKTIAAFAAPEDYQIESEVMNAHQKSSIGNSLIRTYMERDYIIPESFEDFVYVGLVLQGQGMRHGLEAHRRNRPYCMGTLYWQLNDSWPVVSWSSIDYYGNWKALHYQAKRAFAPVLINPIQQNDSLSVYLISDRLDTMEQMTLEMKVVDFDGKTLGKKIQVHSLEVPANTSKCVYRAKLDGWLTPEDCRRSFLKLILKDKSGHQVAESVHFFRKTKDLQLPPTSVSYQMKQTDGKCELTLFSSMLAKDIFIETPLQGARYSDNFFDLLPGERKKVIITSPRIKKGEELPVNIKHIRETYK

Ki (TmGH1 [2])	Ki (SsGH1)	Fold better inhibitor than the isosteric compound with the gt conformation (TmGH1, SsGH1 and BtMan2A)	Fold greater potency over 1-deoxymannojirimycin 6 (BtMan2A)	Structure (SMILES)	Fold better inhibitor than 1-deoxynojirimycin 2 (TmGH1 [1])
–	–	–	–	O[C@H]1[C@H](O)[C@@H](O)CN2CC[C@H](O)[C@H]12 [Compound 1, castanospermine]	four‐fold
5.4 ± 0.5 µM	3.1 ± 0.2 µM	–	–	OC[C@H]1NC[C@H](O)[C@@H](O)[C@@H]1O [Compound 2, 1‐deoxynojirimycin, reference compound]	–
16 ± 2 µM	17 ± 1 µM	between six‐ and ten‐fold	–	C[C@H](O)[C@H]1NC[C@H](O)[C@@H](O)[C@@H]1O.Cl [Compound 3]	–
135 ± 11 µM	105 ± 10 µM	–	–	C[C@@H](O)[C@H]1NC[C@H](O)[C@@H](O)[C@@H]1O [Compound 4]	–
–	–	between six‐ and ten‐fold	27 fold	C[C@H](O)[C@H]1NC[C@@H](O)[C@@H](O)[C@@H]1O.Cl [Compound 7]	–
